From patent publication US20190133985A1 (Orbus Therapeutics, Inc., priority 2016, published 2019)
Structures can show the parent of a compound that is named as a salt. Each block holds one compound with its values, some of them ahead of it.

Columns and labels:
U87MG cells = test: Exon-Seq mutation frequency in glioblastoma cell line model (nucleotides susceptible to TMZ-induced mutations); format: cell-based, human
Experimental: Preliminary data analysis was performed to identify nucleotides susceptible to temozolomide (TMZ)-induced mutations per TMZ concentration. Mutation frequency results were analyzed for 13,040 nucleotide polymorphisms across 6,455 genes that have been previously identified as potentially cancer related based on their description in the Catalogue of Somatic Mutations in Cancer (COSMIC) database.
Statistical analysis of the Exon-Seq data was performed using JMP™ Software. The mutation frequencies were analyzed using ANOVA analysis of variance and the Student's t-test.

ADAM 32 gene = test: Exon-Seq frequency of G/A mutation at chr8: 38,964,647 in U87MG cells; conditions: for mutation rate: TMZ EC-50 for 3 days then eflornithine 200 μM
MUC16 gene = test: Exon-Seq frequency of T/A mutation at chr19: 9,071,763 in U87MG cells; conditions: for mutation rate: TMZ EC-50 for 3 days then eflornithine 200 μM
TP53BP1 gene = test: Exon-Seq frequency of C/T mutation at chr15: 43,762,196 in U87MG cells; conditions: for mutation rate: TMZ EC-50 for 3 days then eflornithine 200 μM
GPR116 gene = test: Exon-Seq frequency of C/T mutation at chr6: 46,867,771 in U87MG cells; conditions: for mutation rate: TMZ EC-20 for 3 days then eflornithine 100 μM
low-grade gliomas = conditions: adjuvant temozolomide chemotherapy; TMZ-induced mutagenesis signature in RB and AKT-mTOR pathways; cited from earlier work

SMILES: NCCCC(N)(C(=O)O)C(F)F (racemic) [eflornithine, D,L-2-(difluoromethyl) ornithine monohydrochloride monohydrate]
effect on mutation rate compared to the TMZ-treated cells, combined data set (ANOVA, Student's t-test) (U87MG cells; sequential DFMO 100 μM after TMZ EC-20): significant decrease
effect on mutation rate compared to the TMZ-treated cells, combined data set (ANOVA, Student's t-test) (U87MG cells; sequential eflornithine 50 μM after TMZ EC-10): significant decrease
effect on mutation rate compared to the TMZ-treated cells, combined data set (ANOVA, Student's t-test) (U87MG cells; sequential eflornithine 200 μM after TMZ EC-50): significant decrease
mutation rate (ADAM 32 gene; 7 days): 33.3%
mutation rate (ADAM 32 gene; 14 days): 43.2%
mutation rate (MUC16 gene; 7 days): 49.1%
mutation rate (MUC16 gene; 14 days): 47.3%
mutation rate (TP53BP1 gene; 7 days): 29.7%
mutation rate (TP53BP1 gene; 14 days): 38.4%
mutation rate (GPR116 gene; 7 days): 60.6%
mutation rate (GPR116 gene; 14 days): 45.0%

Number of nucleotides showing higher than 15% mutation frequency increase due to TMZ treatment (U87MG cells; All three concentrations): 97
Number of nucleotides showing higher than 15% mutation frequency increase due to TMZ treatment (U87MG cells; At least one concentration): 876
Mean Mutation Frequency (U87MG cells; TMZ EC10, T = 3 days): 57%
Number of nucleotides showing higher than 15% mutation frequency increase due to TMZ treatment (U87MG cells; TMZ EC10, 13,040 nucleotide polymorphisms across 6,455 genes): 424
Number of nucleotides showing higher than 15% mutation frequency increase due to TMZ treatment (U87MG cells; TMZ EC20): 436
Mean Mutation Frequency (U87MG cells; TMZ EC20, T = 3 days): 59%
Number of nucleotides showing higher than 15% mutation frequency increase due to TMZ treatment (U87MG cells; TMZ EC50): 417
Mean Mutation Frequency (U87MG cells; TMZ EC50, T = 3 days): 60%
effect on mutation frequency, combined data set (ANOVA, Student's t-test) (U87MG cells; TMZ EC-10): significant increase
effect on mutation frequency, combined data set (ANOVA, Student's t-test) (U87MG cells; TMZ EC-20): significant increase
effect on mutation frequency, combined data set (ANOVA, Student's t-test) (U87MG cells; TMZ EC-50): significant increase
mutation frequency (ADAM 32 gene; TMZ EC-50, day 3): 63.6%
mutation frequency (MUC16 gene; TMZ EC-50, day 3): 64.0%
mutation frequency (TP53BP1 gene; TMZ EC-50, day 3): 62.5%
mutation frequency (GPR116 gene; TMZ EC-20, day 3): 69.6%
SMILES: Cn1nnc2c(C(N)=O)ncn2c1=O [TMZ, 4-methyl-5-oxo-2,3,4,6,8-pentazabicyclo[4.3.0]nona-2,7,9-triene-9-carboxamide]
patients whose tumors showed hypermutation (alternative evolutionary path to high-grade glioma) (low-grade gliomas): 6 of 10
